According to article PMC6685669, “Mapping the Structural Path for Allosteric Inhibition of a Short-Form ATP Phosphoribosyltransferase by Histidine” (Biochemistry, 2019):

Legend:
PaATPPRT [1] = molecular target: T1, PaATPPRT (Psychrobacter arcticus, UniProt Q4FQF7+Q4FTX3); assay type: biochemical; details: ADP replacing ATP as substrate, 20 °C
T1 construct: made in house

PaATPPRT [2] = molecular target: T1, PaATPPRT; experiment: PaATPPRT activity assay, initial rates (absorbance at 290 nm, PRATP formation), inhibition by histidine; assay type: biochemical; details: for Kii: linear regression of intercept replot of individually fitted double-reciprocal curves
Method: All assays were performed under initial rate conditions in the forward direction at 20 °C, in the presence or absence of histidine, as previously described[20] by monitoring the increase in absorbance at 290 nm due to the formation of PRATP (ε290 = 3600 M^–1 cm^–1)[23] in 1 cm path length quartz cuvettes (Hellma) in a Shimadzu UV-2600 spectrophotometer. Unless stated otherwise, for PaHisGS activity, the PaHisGS concentration was typically 2 μM, and for PaATPPRT activity, PaHisGS and PaHisZ concentrations were 0.28 and 15 μM, respectively. Reactions were started by addition of PRPP. Control reaction mixtures lacked either ATP, PRPP, PaHisGS, or PaHisZ. […] Initial rates were also measured with saturating concentrations of both substrates in the presence or absence of 4 mM TIH. All kinetic measurements were performed at least in duplicate unless stated otherwise.
The half-maximal inhibitory concentration of histidine was determined by measuring the initial rates for PaATPPRT (0.24 μM) in the presence of 5.6 mM ATP (or 5.6 mM ADP), 2 mM PRPP, and varying concentrations of histidine (0–320 μM). The inhibition mechanism was investigated by measuring the initial rates for PaATPPRT (0.28 μM) at saturating concentrations of one substrate and varying concentrations of the other, either ATP (0.2–2.8 mM) or PRPP (0.1–2.0 mM), with different concentrations of histidine (0–10 μM). In some instances, the lowest-concentration data point was an outlier in the double-reciprocal plot and was excluded from the fit.
Kinetic and DSF data were analyzed by the nonlinear regression function of SigmaPlot 13 (SPSS Inc.). Data points and error bars in graphs are represented as means ± the standard error, and kinetic and equilibrium constants are presented as means ± the fitting error. Substrate saturation data were fitted to eq 1. Inhibition data at fixed substrate concentrations were fitted to eq 2, and inhibition mechanism data were fitted to eq 3. In eqs 1–3, v is the initial rate, S is the concentration of the varying substrate, kcat is the steady-state turnover number, KM is the apparent Michaelis constant, ET is total enzyme concentration, vi is the initial rate in the presence of an inhibitor, IC50 is the half-maximal inhibitory concentration, h is the Hill slope, Kis is the slope inhibition constant, and Kii is the intercept inhibition constant. DSF thermal denaturation data were fitted to eq 4,[30] and PaHisZ–histidine complex equilibrium dissociation data were fitted to eq 5. In eqs 4 and 5, FU is the fraction unfolded, T is the temperature in degrees Celsius, Tm is the melting temperature, c is the slope of the transition region, LL and UL are folded and unfolded baselines, respectively, Tm0 is the Tm in the absence of histidine, Tm∞ is the Tm at an infinite histidine concentration, H is the histidine concentration, and KD is the apparent equilibrium dissociation constant for the PaHisZ–histidine complex.

PaHisZ = molecular target: T2, PaHisZ (Psychrobacter arcticus, UniProt Q4FTX3); experiment: Differential scanning fluorimetry (DSF), thermal denaturation of PaHisZ; assay type: binding
T2 construct: made in house
Method: DSF measurements (λex = 490 nm; λem = 610 nm) were performed in 96-well plates on a Stratagene Mx3005p instrument. Thermal denaturation of 9.4 μM PaHisZ was assayed (50 μL) in the presence of several histidine concentrations (0–8 mM) in 100 mM tricine, 100 mM KCl, 4 mM DTT, and 15 mM MgCl2 (pH 8.5). Sypro Orange (5×) (Invitrogen) was added to all wells. Thermal denaturation curves were recorded over a temperature range of 25–65 °C with 1 °C min^–1 increments. Control curves without the enzyme and were subtracted from curves with the enzyme. All measurements were carried out in quintuplicate.
Kinetic and DSF data were analyzed by the nonlinear regression function of SigmaPlot 13 (SPSS Inc.). Data points and error bars in graphs are represented as means ± the standard error, and kinetic and equilibrium constants are presented as means ± the fitting error. Substrate saturation data were fitted to eq 1. Inhibition data at fixed substrate concentrations were fitted to eq 2, and inhibition mechanism data were fitted to eq 3. […]

PaATPPRT [3] = molecular target: T1, PaATPPRT; experiment: Rapid kinetics (stopped-flow), approach to steady state in the PaATPPRT reaction; assay type: biochemical
Method: Rapid kinetics experiments were carried out under multiple-turnover conditions by monitoring the increase in absorbance at 290 nm upon PRATP formation at 20 °C in an Applied Photophysics SX-20 stopped-flow spectrophotometer outfitted with a 5 μL mixing cell (0.5 cm path length and 0.9 ms dead time). In all experiments, each syringe contained 100 mM tricine (pH 8.5), 100 mM KCl, 4 mM DTT, 15 mM MgCl2, and 10 μM MtPPase. For the approach to steady state in the PaATPPRT reaction, one syringe carried 38 μM PaATPPRT, 4 mM PRPP, and either 0 or 60 μM histidine, while the other carried 7 mM ATP and either 0 or 60 μM histidine. Reaction was triggered by rapidly mixing 55 μL from each syringe. The increase in absorbance was monitored in a split-time base for 1 s, with 2500 data points collected before 0.2 s and 2500 in the following 0.8 s. At least four traces were acquired for each reaction, and controls lacked PRPP. For initial rates of PaATPPRT and PaHisGS reactions, one syringe carried either 2–4 μM PaHisGS or 4 μM PaATPPRT, 4 mM PRPP, and either 0 or 1.28 mM histidine, while the other carried 11.2 mM ATP. Reaction was triggered by rapidly mixing 55 μL from each syringe. The increase in absorbance was monitored in a linear-time base for 10 s. At least four traces were acquired for each reaction, with 1000 data points collected per trace. Controls lacked PRPP.

Y263F-PaATPPRT = molecular target: T3, Y263F-PaATPPRT (Psychrobacter arcticus, UniProt Q4FQF7+Q4FTX3, Y263F); experiment: Y263F-PaHisZ-based PaATPPRT activity assay, initial rates with and without histidine; assay type: biochemical
T3 construct: made in house
Excerpt: Replacement of tyrosine for phenylalanine at position 263 of PaHisZ was accomplished by the method of Liu and Naismith,[29] with primers 5′-[…]-3′ and 5′-[…]-3′. Successful mutation was confirmed by DNA sequencing (Eurofins Genomics). Y263F-PaHisZ was expressed and purified by the same protocol reported for wild-type (WT) PaHisZ.[20] ESI/MS analysis of the protein yielded a mass of 43068.9, exactly what would be expected by the loss of a hydroxyl group when compared with the mass of WT-PaHisZ.[20] Y263F-PaHisZ-based PaATPPRT was assayed for catalytic activity under initial rate conditions at 20 °C in the presence of 5.6 mM ATP and 2 mM PRPP and in the presence or absence of 320 μM histidine, along with other reaction components exactly as described for WT-PaATPPRT. Measurements were carried out in duplicate.

PaHisGS = tested on: PaHisGS; set-up: method as in PMID 28092443; details: PaHisGS in the absence of PaHisZ; cited from earlier work
[4] = ATP and histidine (60 μM in syringe) rapidly mixed with PaATPPRT preincubated with PRPP
[5] = ATP rapidly mixed with PaATPPRT preincubated with PRPP and histidine (60 μM in syringe)

T1 sequence (Q4FTX3 whole entry): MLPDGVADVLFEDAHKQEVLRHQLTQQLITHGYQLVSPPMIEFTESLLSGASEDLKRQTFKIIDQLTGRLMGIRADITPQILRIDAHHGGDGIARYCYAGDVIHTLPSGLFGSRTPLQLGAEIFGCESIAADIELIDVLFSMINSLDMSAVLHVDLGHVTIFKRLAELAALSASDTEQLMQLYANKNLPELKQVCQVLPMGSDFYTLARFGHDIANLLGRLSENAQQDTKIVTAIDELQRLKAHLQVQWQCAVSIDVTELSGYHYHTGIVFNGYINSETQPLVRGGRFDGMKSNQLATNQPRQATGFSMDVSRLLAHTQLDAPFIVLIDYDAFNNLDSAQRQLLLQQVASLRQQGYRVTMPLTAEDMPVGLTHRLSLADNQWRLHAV
T1 sequence (Q4FQF7 whole entry): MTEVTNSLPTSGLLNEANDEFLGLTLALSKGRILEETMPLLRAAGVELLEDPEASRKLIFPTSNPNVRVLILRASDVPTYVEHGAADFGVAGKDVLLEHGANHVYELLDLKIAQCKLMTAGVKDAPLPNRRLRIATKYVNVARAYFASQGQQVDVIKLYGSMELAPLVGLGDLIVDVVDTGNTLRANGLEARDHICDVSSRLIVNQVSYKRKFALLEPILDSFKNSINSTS
T3 sequence (Q4FQF7 whole entry): as above
T3 sequence (Q4FTX3 whole entry Y263F): as the sequence (Q4FTX3 whole entry) above, with Y263F counted along it
T2 sequence (Q4FTX3 whole entry): as the sequence (Q4FTX3 whole entry) above

For `Nc1ncnc2c1ncn2[C@@H]1O[C@H](COP(=O)(O)OP(=O)(O)O)[C@@H](O)[C@H]1O` [ADP, adenosine 5′-diphosphate], which kcat (PaATPPRT [1]) is on record?
Its kcat is 2.6 ± 0.4 s^–1.

With `N[C@@H](Cc1c[nH]cn1)C(=O)O` [Histidine, L-histidine] as the compound, how does the “h (Hill slope)” value (PaATPPRT [2]; 5.6 mM ATP, 2 mM PRPP, 20 °C, fit to eq 2) read?
Its value is 1.30 ± 0.04.

And the “h (Hill slope)” value (PaATPPRT [2]; ADP (5.6 mM) as the substrate, 2 mM PRPP)?
Its value is 1.32 ± 0.09.

What about the IC50 (PaATPPRT [2]; IC50, 5.6 mM ATP, 2 mM PRPP, 20 °C, fit to eq 2) of the same compound?
The IC50 was 35.5 ± 0.8 µM.

What about the IC50 (PaATPPRT [2]; IC50, ADP (5.6 mM) as the substrate, 2 mM PRPP) of the same compound?
The IC50 was 31 ± 1 µM.

And the Ki (PaATPPRT [2]; Kis (slope inhibition constant), against ATP, global fit to eq 3)?
The Ki was 56 ± 25 µM.

What about the Ki (PaATPPRT [2]; Kis (slope inhibition constant), against PRPP, global fit to eq 3) of the same compound?
Its Ki is 22 ± 6 µM.

And the Ki (PaATPPRT [2]; Kis, against ATP, linear regression of slope replot of individually fitted double-reciprocal curves)?
Its Ki is 60 µM.

And the Ki (PaATPPRT [2]; Kis, against PRPP, linear regression of slope replot of individually fitted double-reciprocal curves)?
Its Ki is 30 µM.

What about the “vi/v0 (ratio of initial rates in presence and absence of inhibitor)” value (PaATPPRT [2]; WT-PaATPPRT, 320 μM histidine, 5.6 mM ATP, 2 mM PRPP, 20 °C) of the same compound?
Its value is 0.070 ± 0.004.

And the “Kii (intercept inhibition constant)” value (PaATPPRT [2]; against ATP, global fit to eq 3)?
Its value is 36 ± 5 µM.

And the Kii (PaATPPRT [2]; against ATP)?
The Kii was 40 µM.

What about the “Kii (intercept inhibition constant)” value (PaATPPRT [2]; against PRPP, global fit to eq 3) of the same compound?
The value was 38 ± 7 µM.

What about the Kii (PaATPPRT [2]; against PRPP) of the same compound?
The Kii was 26 µM.

What about the inhibition mechanism (PaATPPRT [2]; against both substrates (PRPP and ATP)) of the same compound?
The inhibition mechanism was “noncompetitive”.

What about the Kd (PaHisZ; free PaHisZ 9.4 μM, Tm dependence on histidine 0–8 mM, fit to eq 5, read-out: KD (apparent equilibrium dissociation constant, PaHisZ–histidine complex)) of the same compound?
The Kd was 2800 ± 800 µM.

What about the “effect on Tm of PaHisZ” value (PaHisZ; free PaHisZ, histidine 0–8 mM) of the same compound?
Its value is “increases”.

What about the “amplitude of the burst phase” value (PaATPPRT [3]; [4]) of the same compound?
Its value is 3.49 ± 0.01 µM.

What about the steady-state rate (PaATPPRT [3]; [4]) of the same compound?
Its steady-state rate is 7.56 ± 0.01 μM s^–1.

And the burst amplitude (PaATPPRT [3]; [5])?
The burst amplitude was 0.53 ± 0.01 µM.

And the steady-state rate (PaATPPRT [3]; [5])?
Its steady-state rate is 7.83 ± 0.01 μM s^–1.

What about the “vi/v0 (ratio of initial rates in presence and absence of inhibitor)” value (Y263F-PaATPPRT; 320 μM histidine, 5.6 mM ATP, 2 mM PRPP, 20 °C) of the same compound?
The value was 0.250 ± 0.001.

And the “susceptibility to inhibition, Y263F-PaATPPRT less susceptible than WT-PaATPPRT” value (Y263F-PaATPPRT; 320 μM histidine, from vi/v0 of mutant and WT)?
The value was over 3 fold.

What about the inhibition at 320 µM (Y263F-PaATPPRT; read-out: enzyme activity lost due to histidine inhibition) of the same compound?
The inhibition at 320 µM was 75%.

And the “sensitivity of PaHisGS to histidine” value (PaHisGS)?
The value was “insensitive”.

For `N[C@@H](Cc1cccs1)C(=O)O` [TIH, 3-(2-thienyl)-L-alanine], which “effect on PaATPPRT catalysis” value (PaATPPRT [2]; 4 mM TIH, saturating concentrations of both substrates) is on record?
Its value is “no effect”.
